Test results as given in patent US8680153B2, “Method for correcting a lipid imbalance in a subject” (The Royal Institution for the Advancement of …, priority 2005, dated 2014).

How the values were obtained:
ceramide levels = assay: Plasma ceramide levels, biweekly treatment for 4 weeks; type: in vivo; conditions: Cftr-KO mice, 4 weeks of biweekly treatment, p<0.05
Description: (§1) Fenretinide Diet Supplementation. Examples 2 to 6: fenretinide (Sigma-Aldrich, Oakville, ON) powder was resuspended in 95% ethanol and subsequently incorporated in the Peptamen liquid diet. It was protected from light and kept at 4° C. before being given to the mice (5 mg/kg per day per mouse). Mock-treated diets were prepared similarly by adding ethanol to the Peptamen diet but omitting the fenretinide supplementation. The diet was given every morning for 28 consecutive days with specific monitoring of the quantity consumed by the mice in each cage. Examples 7 to 12: fenretinide powder was kindly provided by Dr. Robert Smith (NIH; Bethesda, Md., USA). Fenretinide was resuspended in 95% ethanol to make a 2 μg/μL concentration. Approximately 40 μL of this preparation was incorporated into the Peptamen liquid diet (5 mg/kg per day per mouse). […] During the treatment period each mouse was kept in a separate cage (including WT mice) and was monitored to ensure that the entire amount of Peptamen containing the fenretinide or with out was consumed. […]
(§2) Ceramide/Sphingolipids analysis. The concentration of ceramide in the (lung, liver, ileum, pancreas homogenates) and plasma from mice and humans were determined by ELISA^39;40 on separated lipids samples by thin layer chromatography, as described above. […]

P. aeruginosa = assay: Bacterial load (CFU) in the lungs of infected mice; type: in vivo
Description: P. aeruginosa Inoculum Preparation. In order to establish a model of prolonged lung infection, bacteria-impregnated agar beads were freshly prepared the day before each experiment according to established methods (Guilbault, et al. (2005) Laboratory Animals 39:336-352), and stored at 4° C. overnight. Briefly, the bacteria (P. aeruginosa strain 508) from an overnight culture were grown for approximately 3 hours in a shaking incubator at 37° C., until it reached a mid-log phase. The log-phase bacteria were concentrated and resuspended in 5 mL of Dulbecco's phosphate-buffered saline (PBS; INVITROGEN™, Mississauga, ON). A 5 mL aliquot of the concentrated bacterial broth was added to 52° C. 1.5% trypticase soy agar (DIFCO®, Detroit, Mich.) (agarose beads free of bacteria were prepared using PBS instead of a bacterial suspension). This mixture was quickly added to 52° C. heavy mineral oil and stirred rapidly, first at room temperature for 6 minutes, followed by ice cooling with continuous stirring for 10 minutes. The oil-agar mixture was centrifuged to sediment the beads. The beads were washed with PBS and their size was verified microscopically and only those preparations containing beads predominantly 100-250 micrometers in diameter were used as inoculum. Inoculum was prepared by diluting the beads suspension to 1×10^6 CFUs per 50 μl (injection volume).
Mouse Lung Infection. Mice were anaesthetized with a combination of ketamine (7.5 mg/mL) and xylazine (0.5 mg/mL) administered intraperitoneally at a dose of 20 mL/kg of body weight. Once the mouse was successfully anaesthetized, the animal was installed under binoculars (Microscope M650, Wild Leitz, Willowdale, ON) in the vertical position and held on a restraining board by holding the animal by its upper incisor teeth (Guilbault, et al. (2005) supra). […] Mice were monitored 3 times daily; the maximum weight loss allowed was 15%. […]
Lung Homogenates. […] The number of CFU per lung was counted after overnight incubation at 37° C. […]

[1] = tested on: DHA levels, DHA/AA ratio, ceramide levels, AA levels; assay: Systemic lipid parameters in several organs, biweekly treatment for 4 weeks; type: in vivo, mice; conditions: four-week biweekly treatment
Description: as §1, §2

CC1=C(/C=C/C(C)=C/C=C/C(C)=C/C(=O)Nc2ccc(O)cc2)C(C)(C)CCC1 [fenretinide, all-trans-N-(4-hydroxyphenyl) retinamide]
Ceramide levels, increase vs untreated Cftr-KO (ceramide levels): 5.9 fold
Decrease of median number of bacteria vs untreated Cftr-KO (P. aeruginosa; Cftr-KO mice, day 3 post-infection): about 10 fold
Median bacterial load in the lungs (P. aeruginosa; fenretinide-treated Cftr-KO mice, day 3 post-infection, p=0.004 vs untreated): 3.8×10^4 CFU/lung
Effect on median number of bacteria in the lungs vs untreated infected controls (P. aeruginosa; wild-type mice, p=0.240): no significant effect
Defect/imbalance in DHA levels, DHA/AA ratio and ceramide levels in all organs ([1]; Cftr-KO and HZ mice): effective at correcting, at least partially
AA levels in control organs (heart, kidney and spleen) ([1]; Cftr-KO mice): decreases the AA levels to normal
